Target: SMARCA2 (Homo sapiens, UniProt P51531)
Assay: MSD SMARCA2 degradation in NCI-H1299 cell line (24 h)
Format: cell-based
Set-up: HC: NCI-H1299 cells treated with DMSO; host or cells: NCI-H1299
Details: for Dmax: NCI-H1299, NCI-H1299 cells; for DC50: NCI-H1299 cells, read-out: SMARCA2 MSD H1299 degradation 24 h: External Abs-DC50
How it was run: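 SMARCA2 measured by MSD electrochemiluminescence (primary 0.3 ug/ml, secondary 1 ug/ml) on lysates from NCI-H1299 cells exposed to compounds for 24 h across nine 3-fold dilutions. Signal scaled from A2780 cells (no SMARCA2) to DMSO-treated H1299 controls, and maximal degradation after 24 h reported in letter categories.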

Chain of SMARCA2 (P51531 whole entry): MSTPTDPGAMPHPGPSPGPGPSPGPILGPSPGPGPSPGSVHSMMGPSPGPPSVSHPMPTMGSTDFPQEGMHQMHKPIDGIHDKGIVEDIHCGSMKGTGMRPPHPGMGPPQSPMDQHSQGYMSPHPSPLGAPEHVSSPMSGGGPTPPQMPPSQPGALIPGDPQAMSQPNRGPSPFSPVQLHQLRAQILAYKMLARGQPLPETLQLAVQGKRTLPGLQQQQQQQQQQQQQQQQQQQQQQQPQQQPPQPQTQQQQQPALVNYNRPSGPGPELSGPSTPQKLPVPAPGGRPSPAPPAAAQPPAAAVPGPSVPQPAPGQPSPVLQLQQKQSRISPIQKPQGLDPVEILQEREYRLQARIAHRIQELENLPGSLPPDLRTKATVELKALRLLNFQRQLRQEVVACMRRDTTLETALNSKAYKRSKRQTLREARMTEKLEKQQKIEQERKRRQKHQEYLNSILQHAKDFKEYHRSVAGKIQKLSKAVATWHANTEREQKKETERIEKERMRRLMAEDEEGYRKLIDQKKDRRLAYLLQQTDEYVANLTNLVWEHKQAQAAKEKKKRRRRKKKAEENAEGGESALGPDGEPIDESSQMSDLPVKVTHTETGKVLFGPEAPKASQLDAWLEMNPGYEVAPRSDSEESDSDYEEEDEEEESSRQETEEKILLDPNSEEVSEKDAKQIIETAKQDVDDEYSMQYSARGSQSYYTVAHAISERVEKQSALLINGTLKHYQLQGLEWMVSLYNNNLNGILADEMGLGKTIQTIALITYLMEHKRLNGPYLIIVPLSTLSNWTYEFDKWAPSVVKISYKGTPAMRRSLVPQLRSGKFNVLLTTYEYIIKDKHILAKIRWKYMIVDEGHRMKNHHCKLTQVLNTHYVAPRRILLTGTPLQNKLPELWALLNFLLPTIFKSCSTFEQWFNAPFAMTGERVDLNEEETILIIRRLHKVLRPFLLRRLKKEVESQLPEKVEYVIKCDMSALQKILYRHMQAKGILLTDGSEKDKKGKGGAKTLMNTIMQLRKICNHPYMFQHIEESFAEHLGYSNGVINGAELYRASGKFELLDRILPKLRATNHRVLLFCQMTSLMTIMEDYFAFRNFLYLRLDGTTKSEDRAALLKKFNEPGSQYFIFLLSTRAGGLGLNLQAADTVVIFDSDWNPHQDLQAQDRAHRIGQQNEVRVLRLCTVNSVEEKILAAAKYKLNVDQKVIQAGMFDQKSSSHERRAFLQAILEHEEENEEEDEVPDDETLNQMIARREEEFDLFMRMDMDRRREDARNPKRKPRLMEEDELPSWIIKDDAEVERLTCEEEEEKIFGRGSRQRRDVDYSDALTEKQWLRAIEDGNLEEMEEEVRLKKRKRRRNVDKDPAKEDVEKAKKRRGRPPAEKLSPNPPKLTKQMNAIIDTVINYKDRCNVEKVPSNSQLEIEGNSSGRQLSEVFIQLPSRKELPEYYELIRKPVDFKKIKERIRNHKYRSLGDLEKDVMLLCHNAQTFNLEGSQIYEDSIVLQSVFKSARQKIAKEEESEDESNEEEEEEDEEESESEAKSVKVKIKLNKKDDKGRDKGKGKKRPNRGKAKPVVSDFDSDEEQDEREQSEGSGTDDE

Row | Compound | Dmax [%] | DC50 [µM]
1 | Cn1c(=O)n(C2CCC(=O)NC2=O)c2cccc(CCCN3CCC(Cn4cc(-c5cc(-c6ccccc6O)nnc5N)cn4)CC3)c21 (stereo not drawn) [I-194] | > 90 | < 0.1
2 | CN(CC#Cc1cnc(N2C3CCC2CN(c2cc(-c4ccccc4O)nnc2N)C3)nc1)CCCc1ccc2c(c1)n(C)c(=O)n2C1CCC(=O)NC1=O (stereo not drawn) [I-195, 3-[5-[3-[3-[2-[3-[3-amino-6-(2-hydroxyphenyl)pyridazin-4-yl]-3,8-diazabicyclo[3.2.1]octan-8-yl]pyrimidin-5-yl]prop-2-ynyl-methyl-amino]propyl]-3-methyl-2-oxo-benzimidazol-1-yl]piperidine-2,6-dione] | > 90 | < 0.1
3 | Cn1c(=O)n(C2CCC(=O)NC2=O)c2ccc(CN3CCC(c4cnc(N5C6CCC5CN(c5cc(-c7ccccc7O)nnc5N)C6)nc4)CC3)cc21 (stereo not drawn) [I-196] | > 90 | < 0.1
4 | CN[C@@H](C)C(=O)N[C@H](C(=O)N1CCC[C@H]1c1nc(C(=O)c2cccc(OCCOCCOCCNCc3ccc(-c4cc(-c5ccccc5O)nnc4N)cc3)c2)cs1)C1CCCCC1 [I-198, (S)—N—((S)-2-((S)-2-(4-(3-(2-(2-(2-((4-(3-amino-6-(2-hydroxyphenyl)pyridazin-4-yl)benzyl)amino)ethoxy)ethoxy)ethoxy)benzoyl)thiazol-2-yl)pyrrolidin-1-yl)-1-cyclohexyl-2-oxoethyl)-2-(methylamino)propanamide] | 50 to 70 | > 1
5 | CN[C@@H](C)C(=O)N[C@H](C(=O)N1Cc2cc(OCCOCCOCCOCCNC(=O)CCCOc3cccc(N4C[C@H]5C[C@@H]4CN5/C=C/C(=O)c4ccccc4O)n3)ccc2C[C@H]1C(=O)N[C@@H]1CCCc2ccccc21)C(C)(C)C [I-199] | – | > 1
6 | CN[C@@H](C)C(=O)N[C@H](C(=O)N1Cc2cc(OCCOCCOCCNC(=O)CCCOc3cccc(N4C[C@H]5C[C@@H]4CN5/C=C/C(=O)c4ccccc4O)n3)ccc2C[C@H]1C(=O)N[C@@H]1CCCc2ccccc21)C(C)(C)C [I-200] | – | > 1
7 | Cc1ncsc1-c1ccc(CNC(=O)[C@@H]2C[C@@H](O)CN2C(=O)[C@@H](NC(=O)COCCOCCOCCOCCNC(=O)CCCOc2cccc(N3C[C@H]4C[C@@H]3CN4/C=C/C(=O)c3ccccc3O)n2)C(C)(C)C)cc1 [I-201] | – | > 1
8 | CN[C@@H](C)C(=O)N[C@H](C(=O)N1Cc2cc(OCCOCCOCCOCCOCCOCCNC(=O)CCCCCCCCOc3ccnc(N4C[C@H]5C[C@@H]4CN5/C=C/C(=O)c4ccccc4O)c3)ccc2C[C@H]1C(=O)N[C@@H]1CCCc2ccccc21)C(C)(C)C [I-202] | – | > 1
9 | CN[C@@H](C)C(=O)N[C@H](C(=O)N1Cc2cc(OCCOCCOCCOCCOCCNC(=O)CCCCCCCCOc3ccnc(N4C[C@H]5C[C@@H]4CN5/C=C/C(=O)c4ccccc4O)c3)ccc2C[C@H]1C(=O)N[C@@H]1CCCc2ccccc21)C(C)(C)C [I-203] | – | > 1
10 | CN[C@@H](C)C(=O)N[C@H](C(=O)N1Cc2cc(OCCOCCOCCOCCNC(=O)CCCCCCCCOc3ccnc(N4C[C@H]5C[C@@H]4CN5/C=C/C(=O)c4ccccc4O)c3)ccc2C[C@H]1C(=O)N[C@@H]1CCCc2ccccc21)C(C)(C)C [I-204] | – | > 1
11 | CN[C@@H](C)C(=O)N[C@H](C(=O)N1Cc2cc(OCCOCCOCCNC(=O)CCCCCCCCOc3ccnc(N4C[C@H]5C[C@@H]4CN5/C=C/C(=O)c4ccccc4O)c3)ccc2C[C@H]1C(=O)N[C@@H]1CCCc2ccccc21)C(C)(C)C [I-205] | – | > 1
12 | CN[C@@H](C)C(=O)N[C@H](C(=O)N1Cc2cc(OCCOCCOCCOCCOCCOCCNC(=O)c3ccc(C(C)n4cc(-c5cc(-c6ccccc6O)nnc5N)cn4)cc3)ccc2C[C@H]1C(=O)N[C@@H]1CCCc2ccccc21)C(C)(C)C (stereo partly drawn) [I-206] | – | > 1
13 | CN[C@@H](C)C(=O)N[C@H](C(=O)N1Cc2cc(OCCOCCOCCOCCOCCNC(=O)c3ccc(C(C)n4cc(-c5cc(-c6ccccc6O)nnc5N)cn4)cc3)ccc2C[C@H]1C(=O)N[C@@H]1CCCc2ccccc21)C(C)(C)C (stereo partly drawn) [I-207] | – | > 1
14 | CN[C@@H](C)C(=O)N[C@H](C(=O)N1Cc2cc(OCCOCCOCCOCCNC(=O)c3ccc(C(C)n4cc(-c5cc(-c6ccccc6O)nnc5N)cn4)cc3)ccc2C[C@H]1C(=O)N[C@@H]1CCCc2ccccc21)C(C)(C)C (stereo partly drawn) [I-208] | – | > 1
15 | CN[C@@H](C)C(=O)N[C@H](C(=O)N1Cc2cc(OCCOCCOCCNC(=O)c3ccc(C(C)n4cc(-c5cc(-c6ccccc6O)nnc5N)cn4)cc3)ccc2C[C@H]1C(=O)N[C@@H]1CCCc2ccccc21)C(C)(C)C (stereo partly drawn) [I-209] | – | > 1
16 | Cc1ncsc1-c1ccc(CNC(=O)[C@@H]2C[C@@H](O)CN2C(=O)[C@@H](NC(=O)CCCCCN2CCC(c3cnc(N4C5CCC4CN(c4cc(-c6ccccc6O)nnc4N)C5)nc3)CC2)C(C)(C)C)cc1 [I-210, (2S,4R)-1-[(2S)-2-[6-[4-[2-[3-[3-amino-6-(2-hydroxyphenyl)pyridazin-4-yl]-3,8-diazabicyclo[3.2.1]octan-8-yl]pyrimidin-5-yl]-1-piperidyl]hexanoylamino]-3,3-dimethyl-butanoyl]-4-hydroxy-N-[[4-(4-methylthiazol-5-yl)phenyl]methyl]pyrrolidine-2-carboxamide] | > 90 | 0.501 to 1
17 | Cc1ncsc1-c1ccc(CNC(=O)[C@@H]2C[C@@H](O)CN2C(=O)[C@@H](NC(=O)CN2CCC(c3cnc(N4C5CCC4CN(c4cc(-c6ccccc6O)nnc4N)C5)nc3)CC2)C(C)(C)C)cc1 [I-211, (2S,4R)-1-[(2S)-2-[[2-[4-[2-[3-[3-amino-6-(2-hydroxyphenyl)pyridazin-4-yl]-3,8-diazabicyclo[3.2.1]octan-8-yl]pyrimidin-5-yl]-1-piperidyl]acetyl]amino]-3,3-dimethyl-butanoyl]-4-hydroxy-N-[[4-(4-methylthiazol-5-yl)phenyl]methyl]pyrrolidine-2-carboxamide] | > 90 | 0.1 to 0.5
18 | Cc1ncsc1-c1ccc(CNC(=O)[C@@H]2C[C@@H](O)CN2C(=O)[C@@H](NC(=O)CCCCCN(C)Cc2ccc(N3CCN(c4cc(-c5ccccc5O)nnc4N)CC3)cc2)C(C)(C)C)cc1 [I-212, (2S,4R)-1-[(2S)-2-[6-[[4-[4-[3-amino-6-(2-hydroxyphenyl)pyridazin-4-yl]piperazin-1-yl]phenyl]methyl-methyl-amino]hexanoylamino]-3,3-dimethyl-butanoyl]-4-hydroxy-N-[[4-(4-methylthiazol-5-yl)phenyl]methyl]pyrrolidine-2-carboxamide] | < 50 | > 1
19 | Cc1ncsc1-c1ccc(CNC(=O)[C@@H]2C[C@@H](O)CN2C(=O)[C@@H](NC(=O)CCCCCCCCCN(C)Cc2ccc(N3CCN(c4cc(-c5ccccc5O)nnc4N)CC3)cc2)C(C)(C)C)cc1 [I-213] | 70 to 90 | 0.501 to 1
20 | Cc1ncsc1-c1ccc(CNC(=O)[C@@H]2C[C@@H](O)CN2C(=O)[C@@H](NC(=O)CCCCCCCCCN2CCC(Cn3cc(-c4cc(-c5ccccc5O)nnc4N)cn3)CC2)C(C)(C)C)cc1 [I-214] | > 90 | 0.501 to 1
21 | Cc1ncsc1-c1ccc(CNC(=O)[C@@H]2C[C@@H](O)CN2C(=O)[C@@H](NC(=O)CCCCCN2CCC(Cn3cc(-c4cc(-c5ccccc5O)nnc4N)cn3)CC2)C(C)(C)C)cc1 [I-215, (2S,4R)-1-((S)-2-(6-(4-((4-(3-amino-6-(2-hydroxyphenyl)pyridazin-4-yl)-1H-pyrazol-1-yl)methyl)piperidin-1-yl)hexanamido)-3,3-dimethylbutanoyl)-4-hydroxy-N-(4-(4-methylthiazol-5-yl)benzyl)pyrrolidine-2-carboxamide] | < 50 | > 1
22 | Cc1ncsc1-c1ccc(CNC(=O)[C@@H]2C[C@@H](O)CN2C(=O)[C@@H](NC(=O)CCCCCCCN(C)Cc2ccc(N3CCN(c4cc(-c5ccccc5O)nnc4N)CC3)cc2)C(C)(C)C)cc1 [I-216] | 70 to 90 | 0.501 to 1
23 | Cc1ncsc1-c1ccc(CNC(=O)[C@@H]2C[C@@H](O)CN2C(=O)[C@@H](NC(=O)CCCCCCCN2CCC(Cn3cc(-c4cc(-c5ccccc5O)nnc4N)cn3)CC2)C(C)(C)C)cc1 [I-217] | > 90 | > 1
24 | Cc1ncsc1-c1ccc(CNC(=O)[C@@H]2C[C@@H](O)CN2C(=O)[C@@H](NC(=O)COCCOCCOCCNC(=O)CCCOc2cccc(N3C[C@H]4C[C@@H]3CN4/C=C/C(=O)c3ccccc3O)n2)C(C)(C)C)cc1 [I-218] | – | > 1
25 | Cc1ncsc1-c1ccc(CNC(=O)[C@@H]2C[C@@H](O)CN2C(=O)[C@@H](NC(=O)COCCOCCOCCNC(=O)CCCCCCCCOc2ccnc(N3C[C@H]4C[C@@H]3CN4/C=C/C(=O)c3ccccc3O)c2)C(C)(C)C)cc1 [I-220] | – | > 1
26 | Cc1ncsc1-c1ccc(CNC(=O)[C@@H]2C[C@@H](O)CN2C(=O)[C@@H](NC(=O)COCCOCCOCCOCCOCCOCCNC(=O)CCCCCCCCOc2ccnc(N3C[C@H]4C[C@@H]3CN4/C=C/C(=O)c3ccccc3O)c2)C(C)(C)C)cc1 [I-221] | – | > 1
27 | Cc1ncsc1-c1ccc(CNC(=O)[C@@H]2C[C@@H](O)CN2C(=O)[C@@H](NC(=O)COCCOCCOCCOCCOCCNC(=O)CCCCCCCCOc2ccnc(N3C[C@H]4C[C@@H]3CN4/C=C/C(=O)c3ccccc3O)c2)C(C)(C)C)cc1 [I-222] | – | > 1
28 | Cc1ncsc1-c1ccc(CNC(=O)[C@@H]2C[C@@H](O)CN2C(=O)[C@@H](NC(=O)COCCOCCOCCOCCNC(=O)CCCCCCCCOc2ccnc(N3C[C@H]4C[C@@H]3CN4/C=C/C(=O)c3ccccc3O)c2)C(C)(C)C)cc1 [I-223] | – | > 1
29 | Cc1ncsc1-c1ccc(CNC(=O)[C@@H]2C[C@@H](O)CN2C(=O)[C@@H](NC(=O)COCCOCCOCCNC(=O)c2ccc(C(C)n3cc(-c4cc(-c5ccccc5O)nnc4N)cn3)cc2)C(C)(C)C)cc1 (stereo partly drawn) [I-224] | – | > 1
30 | Cc1ncsc1-c1ccc(CNC(=O)[C@@H]2C[C@@H](O)CN2C(=O)[C@@H](NC(=O)COCCOCCOCCOCCOCCOCCNC(=O)c2ccc(C(C)n3cc(-c4cc(-c5ccccc5O)nnc4N)cn3)cc2)C(C)(C)C)cc1 (stereo partly drawn) [I-225] | – | > 1
